For 1 compound, Km results are on record in article PMC11961743 (Nature Communications, 2025).

The test relates to SdPT. As to the kind of experiment: HPLC prenylation assay, yeast microsomes. The settings on record: saturating DMAPP and MgCl2; optimum pH 10.0, 45 °C. In kind it is biochemical, Saposhnikovia divaricata.

The structures appear in SMILES notation.

Usually Km stands for the substrate concentration at which the rate is half of its maximum.

Turning to `Cc1cc(=O)c2c(O)cc(O)cc2o1` [compound 2, noreugenin], the Michaelis-Menten constant (Km) was found to be 29.1 µM.
